Experimental data as given in patent US6908908B2, “Biologically active 4H-benzo [1,4] oxazin-3-ones” (Ortho-McNeil Pharmaceutical, Inc., priority 2000, dated 2005).

The compounds below were run against T1, PPAR γ (Homo sapiens, UniProt P37231) (assay: aP2 Assay for Agonist (induction of aP2 mRNA production)). Conditions: Table 1; fold increase over vehicle in induction of aP2 mRNA production.
T1 construct: Following the challenge of the preadipocytes, cells may be lysed with lysis buffer; endogenous in cells; host or cells: preadipocytes
T1 sequence (P37231 1-505): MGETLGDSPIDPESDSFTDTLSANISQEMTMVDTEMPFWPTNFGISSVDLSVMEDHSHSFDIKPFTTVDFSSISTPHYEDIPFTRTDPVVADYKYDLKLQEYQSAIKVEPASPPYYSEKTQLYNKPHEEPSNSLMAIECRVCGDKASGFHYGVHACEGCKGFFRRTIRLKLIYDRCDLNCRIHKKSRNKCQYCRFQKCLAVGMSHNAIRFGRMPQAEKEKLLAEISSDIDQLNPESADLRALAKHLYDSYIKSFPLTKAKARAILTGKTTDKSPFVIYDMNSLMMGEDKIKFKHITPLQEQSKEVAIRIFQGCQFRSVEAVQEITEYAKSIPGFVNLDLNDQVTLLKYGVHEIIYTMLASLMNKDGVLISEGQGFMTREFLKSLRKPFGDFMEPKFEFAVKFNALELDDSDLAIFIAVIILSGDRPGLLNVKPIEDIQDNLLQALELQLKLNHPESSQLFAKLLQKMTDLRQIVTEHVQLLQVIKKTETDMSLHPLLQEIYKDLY
Format: cell-based
Throughout, for Agonist Intrinsic Activity: test concentration or dose not given here.

For `O=C(O)CCCCN1C(=O)C(CCOc2ccccc2CC(=O)O)Oc2ccccc21` (stereo not shown) [Compound 60], which “Agonist Intrinsic Activity” value is on record?
Its value is 1.5.

`COC(=O)Cc1cccc(OCCC2Oc3ccccc3N(Cc3cccc(C(F)(F)F)c3)C2=O)c1` (stereo not shown) [Compound 33] was tested. Which “Agonist Intrinsic Activity” value did it give?
Its value is 0.8.

Which “Agonist Intrinsic Activity” value does the source give for `CC(F)(F)CCCCN1C(=O)C(CCOc2ccccc2CC(=O)O)Oc2ccccc21` (single isomer, unassigned) [Compound 88] here?
Its value is 45.4.

With `O=C([O-])Cc1ccccc1OCCC1Oc2ccccc2N(Cc2cccc(C(F)(F)F)c2)C1=O.[Na+]` (stereo not shown) [Compound 28] as the compound, how does the “Agonist Intrinsic Activity” value read?
The value was 21.5.

`CC(=O)CCCCCN1C(=O)C(CCOc2ccccc2CC(=O)O)Oc2ccccc21` (stereo not shown) [Compound 108] was tested. Which “Agonist Intrinsic Activity” value did it give?
The value was 37.3.

`COC(=O)CCc1ccccc1OCCC1Oc2ccccc2N(Cc2cccc(C(F)(F)F)c2)C1=O` (stereo not shown) [Compound 29] was tested. Which “Agonist Intrinsic Activity” value did it give?
Its value is 0.8.

`CCCCCCCCCCN1C(=O)C(CCOc2ccccc2CC(=O)O)Oc2ccccc21` (stereo not shown) [Compound 57] was tested. Which “Agonist Intrinsic Activity” value did it give?
Its value is 9.9.

`CCCNC(=O)CN1C(=O)C(CCOc2ccccc2CC(=O)O)Oc2ccccc21` (stereo not shown) [Compound 122] was tested. Which “Agonist Intrinsic Activity” value did it give?
Its value is 40.83.

For `O=C(O)Cc1ccccc1OCCC1Oc2ccccc2N(Cc2cc(C(F)(F)F)cc(C(F)(F)F)c2)C1=O` (stereo not shown) [Compound 40], which “Agonist Intrinsic Activity” value is on record?
The value was 6.7.

Which “Agonist Intrinsic Activity” value does the source give for `CON=C(C)CCCCN1C(=O)C(CCOc2ccccc2CC(=O)O)Oc2ccccc21` (stereo not shown) [Compound 80] here?
Its value is 2.8.

With `O=C(O)Cc1ccccc1OCCC1Oc2ccccc2N(CCCCCCF)C1=O` (stereo not shown) [Compound 91, Benzeneacetic acid, 2-[2-[4-(6-fluorohexyl)-3,4-dihydro-3-oxo-2H-1,4-benzoxazin-2-yl]ethoxy]-] as the compound, how does the “Agonist Intrinsic Activity” value read?
The value was 64.9.

For `CCCOCCN1C(=O)C(CCOc2ccccc2CC(=O)O)Oc2ccccc21` (stereo not shown) [Compound 117], which “Agonist Intrinsic Activity” value is on record?
The value was 45.9.

How did the “Agonist Intrinsic Activity” value turn out when `CCCCCCN1C(=O)C(CCOc2ccccc2C(=O)C(=O)O)Oc2ccccc21` (stereo not shown) [Compound 13, Benzeneacetic acid, 2-[2-(4-hexyl-3,4-dihydro-3-oxo-2H-1,4-benzoxazin-2-yl)ethoxy]-a-oxo-] was run?
Its value is 2.6.

For `COC(=O)Cc1ccccc1OCCC1Oc2ccccc2N(CC(=O)OC)C1=O` (stereo not shown) [Compound 45], which “Agonist Intrinsic Activity” value is on record?
Its value is 7.2.

`O=C(O)Cc1ccccc1OCCC1Oc2ccccc2N(CCO)C1=O` (stereo not shown) [Compound 25] was tested. Which “Agonist Intrinsic Activity” value did it give?
The value was 3.5.

How did the “Agonist Intrinsic Activity” value turn out when `Cc1cccc(CN2C(=O)C(CCOc3ccccc3C(F)(F)F)Oc3ccccc32)c1` (stereo not shown) [Compound 2] was run?
Its value is 1.2.

`O=C(O)Cc1ccccc1OCCC1Oc2ccccc2N(CC(=O)O)C1=O` (stereo not shown) [Compound 23] was tested. Which “Agonist Intrinsic Activity” value did it give?
The value was 0.8.

With `COC(=O)Cc1ccccc1OCCC1Oc2ccccc2N(Cc2ccc(C(F)(F)F)cc2)C1=O` (stereo not shown) [Compound 37] as the compound, how does the “Agonist Intrinsic Activity” value read?
Its value is 1.2.

For `O=C(O)Cc1ccccc1OCCC1Oc2ccccc2N(CCCC2CCCC2)C1=O` (stereo not shown) [Compound 70], which “Agonist Intrinsic Activity” value is on record?
The value was 57.9.

With `CCCSCCN1C(=O)C(CCOc2ccccc2CC(=O)O)Oc2ccccc21` (stereo not shown) [Compound 116] as the compound, how does the “Agonist Intrinsic Activity” value read?
The value was 4.0.

For `CCCCCCCCCN1C(=O)C(CCOc2ccccc2CC(=O)O)Oc2ccccc21` (stereo not shown) [Compound 55], which “Agonist Intrinsic Activity” value is on record?
Its value is 7.1.

`O=C(O)Cc1ccccc1OCCC1Oc2ccccc2N(CCCCCF)C1=O` (stereo not shown) [Compound 113] was tested. Which “Agonist Intrinsic Activity” value did it give?
The value was 29.1.

Which “Agonist Intrinsic Activity” value does the source give for `COC(=O)CCc1cccc(OCCC2Oc3ccccc3N(Cc3cccc(C(F)(F)F)c3)C2=O)c1` (stereo not shown) [Compound 35] here?
Its value is 0.8.

How did the “Agonist Intrinsic Activity” value turn out when `CCOCCCN1C(=O)C(CCOc2ccccc2CC(=O)O)Oc2ccccc21` (stereo not shown) [Compound 115] was run?
Its value is 40.9.

How did the “Agonist Intrinsic Activity” value turn out when `O=C(O)Cc1ccccc1OCCC1Oc2ccccc2N(CCCCCCCF)C1=O` (stereo not shown) [Compound 110] was run?
Its value is 64.5.

Which “Agonist Intrinsic Activity” value does the source give for `O=C(O)Cc1ccccc1OCCC1Oc2ccccc2N(CCC2CCCC2)C1=O` (stereo not shown) [Compound 68] here?
Its value is 43.2.

`O=C([O-])CCCc1ccccc1OCCC1Oc2ccccc2N(Cc2cccc(C(F)(F)F)c2)C1=O.[Na+]` (stereo not shown) [Compound 32] was tested. Which “Agonist Intrinsic Activity” value did it give?
Its value is 8.2.

For `O=C(O)Cc1ccccc1OCCC1Oc2ccccc2N(CCCCCCCO)C1=O` (stereo not shown) [Compound 112], which “Agonist Intrinsic Activity” value is on record?
The value was 74.5.

How did the “Agonist Intrinsic Activity” value turn out when `O=C1C(CCOc2ccccc2C(F)(F)F)Oc2ccccc2N1Cc1cccc(C(F)(F)F)c1` (stereo not shown) [Compound 10] was run?
Its value is 0.8.

Which “Agonist Intrinsic Activity” value does the source give for `COCCCCN1C(=O)C(CCOc2ccccc2C(F)(F)F)Oc2ccccc21` (stereo not shown) [Compound 18] here?
Its value is 0.3.

Which “Agonist Intrinsic Activity” value does the source give for `CCCCCCCN1C(=O)C(CCOc2ccccc2CC(=O)OC)Oc2ccccc21` (stereo not shown) [Compound 50] here?
The value was 6.2.

How did the “Agonist Intrinsic Activity” value turn out when `CC(=O)NC(C)CCCCN1C(=O)C(CCOc2ccccc2CC(=O)O)Oc2ccccc21` (stereo not shown) [Compound 85] was run?
Its value is 24.

How did the “Agonist Intrinsic Activity” value turn out when `CCCCCCCCCCN1C(=O)C(CCOc2ccccc2C(F)(F)F)Oc2ccccc21` (stereo not shown) [Compound 17] was run?
The value was 1.1.

For `CC(F)(F)CCCCN1C(=O)C(CCOc2ccccc2CC(=O)O)Oc2ccccc21` (single isomer, unassigned) [Compound 89], which “Agonist Intrinsic Activity” value is on record?
Its value is 42.0.

For `CCCSCCN1C(=O)C(CCOc2ccccc2C(F)(F)F)Oc2ccccc21` (stereo not shown) [Compound 21], which “Agonist Intrinsic Activity” value is on record?
Its value is 1.9.

How did the “Agonist Intrinsic Activity” value turn out when `COC(=O)CCCc1ccccc1OCCC1Oc2ccccc2N(Cc2cccc(C(F)(F)F)c2)C1=O` (stereo not shown) [Compound 31] was run?
The value was 0.9.

Which “Agonist Intrinsic Activity” value does the source give for `O=C(O)Cc1cccc(OCCC2Oc3ccccc3N(Cc3cc(C(F)(F)F)cc(C(F)(F)F)c3)C2=O)c1` (stereo not shown) [Compound 44] here?
The value was 6.8.

With `CC(C)(C)CCCCN1C(=O)C(CCOc2ccccc2CC(=O)O)Oc2ccccc21` (stereo not shown) [Compound 74] as the compound, how does the “Agonist Intrinsic Activity” value read?
Its value is 22.0.

Which “Agonist Intrinsic Activity” value does the source give for `O=C(O)Cc1ccccc1OCCC1Oc2ccccc2N(Cc2ccc(C(F)(F)F)cc2)C1=O` (stereo not shown) [Compound 38] here?
Its value is 38.7.

How did the “Agonist Intrinsic Activity” value turn out when `O=C(O)Cc1ccccc1OCCC1Oc2ccccc2N(CC(=O)O)C1=O` (stereo not shown) [Compound 46] was run?
Its value is 2.

For `O=C(O)CCc1ccccc1OCCC1Oc2ccccc2N(Cc2cc(C(F)(F)F)cc(C(F)(F)F)c2)C1=O` (stereo not shown) [Compound 42], which “Agonist Intrinsic Activity” value is on record?
Its value is 2.1.

For `CCCOCCN1C(=O)C(CCOc2ccccc2C(F)(F)F)Oc2ccccc21` (stereo not shown) [Compound 20], which “Agonist Intrinsic Activity” value is on record?
Its value is 1.2.

Same assay, conditions: Table 3 (stereoisomers); fold increase over vehicle in induction of aP2 mRNA production

For `CCCCCCN1C(=O)C(CCOc2ccc(OC(C)(C)C(=O)O)cc2)Oc2ccccc21` (stereo not shown) [Compound 129], which “PPAR γ Agonist Intrinsic Activity” value is on record?
The value was 12.62.
